Results reported in paper PMC8453745, “Human Mass Balance and Metabolite Profiling of [^14C]‐Pamiparib, a Poly (ADP‐Ribose) Polymerase Inhibitor, in Patients With Advanced Cancer” (Clinical Pharmacology in Drug Development, 2021).

How the values were obtained:
[1] = parameters: method as in data on file; conditions: suspension in water, room temperature; ref data on file; cited from earlier work
[2] = mass balance: recovery of radioactivity in urine and feces; type: in vivo, human
Description: Part 1 of the study included a screening phase of up to 28 days prior to drug administration to assess eligibility. Patients were admitted to the clinical research unit (CRU) at Royal Liverpool University Hospital (Liverpool, UK)/Clatterbridge Cancer Centre NHS Foundation Trust (Bebington, Wirral, UK) on day −1 and received a single dose of 60‐mg/100 μCi [^14C]‐pamiparib orally the morning of day 1. Patients remained in the CRU until completion of assessments on day 7, when discharge criteria of ≈90% of the radioactive dose being recovered or <1% of the radioactive dose being recovered in urine and feces for 2 consecutive 24‐hour collection intervals were met. If discharge criteria were not met by day 7, patients collected 24‐hour excreta samples up to day 14 on an outpatient basis. Part 2 of the study, evaluating the safety/tolerability and antitumor activity of 60 mg twice‐daily pamiparib in patients with advanced and/or metastatic solid tumors, is ongoing and is not included in this report.
Total radioactivity concentrations of [^14C]‐pamiparib in whole blood, plasma, urine, and feces were determined by liquid scintillation counting (LSC). Radioactivity in each sample was measured for 5 minutes using a Packard Tri‐Carb liquid scintillation counter model 2100TR, 2900TR, or 3100TR (Canberra Packard, Pangbourne, Berks, Australia) with the facilities for computing quench‐corrected disintegrations per minute. Metabolite identification in plasma, urine, and feces was conducted by LC‐MS. Quantitation of the metabolites present in plasma, urine, and feces was based on the profiles of radioactivity. The limit of quantitation for radioactivity in plasma, urine, and feces was set at 1% of each chromatographic analysis (run) and 10 counts per minute (cpm) peak height; therefore, radioactive peaks that were <1% of the total run or <10 cpm peak height were reported as not detected. […]
Each aliquot of urine (about 1 mL, weighed) was added directly to liquid scintillant prior to LSC. […] The radioactivity in each pooled sample was determined by LSC. […]

[3] = parameters: method as in PMID 32652442; conditions: after oral administration in mice; cited from earlier work
rat bone marrow = system: rat bone marrow; parameters: method as in data on file; conditions: in vivo rat bone marrow micronucleus assay; ref data on file; cited from earlier work
[4] = metabolic stability in human liver microsomes; type: in vitro ADME; conditions: human, pooled human liver microsomes, 1 μM, 0.5 mg/mL HLM, NADPH
Method: (§1) Metabolic stability in human liver microsomes (HLMs) and cytochrome P450 (CYP450) phenotyping assays were conducted in 3D BioOptima (Suzhou, China) using validated methodology, [13] to determine the intrinsic clearance and enzymes responsible for metabolism of pamiparib. HLMs for microsome stability was from BD Biosciences (Woburn, New York). For phenotyping, HLMs and recombinant P450 (rCYP) were from Corning (Woburn, New York). Pamiparib (1 μM) was incubated with pooled HLM (0.5 mg/mL), NADPH (1 mM), and MgCl2 (3 mM) terminated at 0, 5, 15, 30, 60, and 90 minutes. The intrinsic clearance was calculated as 0.693/(t1/2 × HLM concentration), where t1/2 is the half‐life of pamiparib determined in HLMs. For phenotyping in HLMs, pamiparib (1 μM) was incubated in the absence or presence of isoform‐selective inhibitors: 0.2 μM α‐naphthoflavone for CYP1A2, 2 μM clopidogrel for CYP2B6, 16 μM montelukast for CYP2C8, 10 μM sulfaphenazole for CYP2C9, 30 μM nootkatone for CYP2C19, 2 μM quinidine for CYP2D6, and 1 μM ketoconazole for CYP3A. The following isoform‐selective probe substrates served as positive controls: 40 μM phenacetin for CYP1A2, 100 μM bupropion for CYP2B6, 2 μM amodiaquine for CYP2C8, 5 μM diclofenac for CYP2C9, 40 μM S‐mephenytoin for CYP2C19, 5 μM dextromethorphan for CYP2D6, and 2 μM midazolam for CYP3A4. […] Pamiparib (1 μM) was also incubated with rCYP1A2, rCYP2B6, rCYP2C8, rCYP2C9, rCYP2C19, rCYP2D6, or rCYP3A4 (50 pmol/mL) for 90 minutes with NADPH and MgCl2. The following isoform‐selective probe substrates served as positive controls: 1 μM phenacetin for CYP1A2, 2 μM bupropion for CYP2B6, 2 μM amodiaquine for CYP2C8, 2 μM diclofenac for CYP2C9, 10 μM S‐mephenytoin for CYP2C19, 1 μM dextromethorphan for CYP2D6, and 20 μM midazolam for CYP3A4. Pamiparib, M1, and M2 were analyzed by LC‐MS/MS.

[5] = system: human liver microsomes (HLMs); assay: metabolic stability in human liver microsomes; type: in vitro ADME; conditions: 90‐minute incubation in HLMs without CYP inhibitors
Method: as §1

C[C@]12CCCN1CC1=NNC(=O)c3cc(F)cc4[nH]c2c1c34 [Pamiparib]
chemical stability and radiopurity of the suspension established for [1]: 48 h | administered radioactivity excreted in the feces ([2]; 192‐hour collection period): 26.9% ± 6.8% | overall mean total recovery of radioactivity in urine and feces ([2]; 192‐hour collection period, mean ± SD, n = 4): 84.7% ± 3.5% | mass balance achieved for all 4 subjects ([2]; individual subjects): higher than 80% | brain penetrance [3]: brain penetrance | clastogenic activity (rat bone marrow): clastogenic activity | half-life at 1 μM [4]: 3 h | microsomal CLint at 1 μM ([4]; read-out: intrinsic clearance in HLM): 7.9 µL/min/mg | pamiparib remaining [5]: 45.0%
